Where two headings read alike, the source gives them in different places.
Assays:
SARS-CoV-2 [1] = assay type: cell-based; settings: Caco-2 cells, MOI 0.01, 24 hours post-infection
SARS-CoV-2 [2] = assay type: cell-based; settings: Caco-2 cells; for reduction of virus production in the supernatants: after 8, 12 and 24 h, at concentrations as low as 1μM; for reduction of SARS-Cov2 RNA levels in infected cells: after 4 hours
SARS-CoV-2 Mpro = SARS-CoV-2 Mpro (Severe acute respiratory syndrome coronavirus 2, UniProt P0DTD1); assay type: biochemical
SARS-CoV-2 [3] = assay type: cell-based; settings: 100 μM compound, 24 hours post-infection
SARS-CoV-2 [4] = assay type: cell-based; settings: Calu-3 human lung cells, MOI 0.01, 24 hours post-infection
SARS-CoV-2 [5] = assay type: cell-based; settings: primary bronchial epithelial cells, 10 μM or 1 μM, 48 h post-infection
SARS-CoV-2 [6] = assay type: cell-based; settings: primary nasal epithelial cells, 10 μM or 1 μM, 48 h post-infection
[7] = system: syncytia formation in SARS-CoV-2 infected Vero cells; assay type: cell-based
[8] = system: syncytia formation in SARS-CoV-2 infected A549-ACE2/TMPRSS2 cells; assay type: cell-based
HCoV-OC43 = assay type: cell-based; settings: 10 μM, HRT-18G cells

Row | Structure (SMILES) | lowest concentration reducing the infectivity of SARS-CoV-2 (SARS-CoV-2 [1]) | reduction of virus production in the supernatants (SARS-CoV-2 [2]) | reduction of SARS-Cov2 RNA levels in infected cells (SARS-CoV-2 [2]) | inhibition of SARS-CoV-2 Mpro (SARS-CoV-2 Mpro; 10 μM compound, Mpro at 2 μM) | inhibition of SARS-CoV-2 Mpro (SARS-CoV-2 Mpro; 100 μM compound) | infectivity of SARS-CoV2 in Vero cells (SARS-CoV-2 [3]) | lowest concentration reducing the infectivity of SARS-CoV-2 (SARS-CoV-2 [4]) | SARS-Cov2 RNA levels in infected cells (SARS-CoV-2 [5]) | virus production (supernatants titered on Vero cells) (SARS-CoV-2 [5]) | SARS-Cov2 RNA levels in infected cells (SARS-CoV-2 [6]) | virus production (supernatants titered on Vero cells) (SARS-CoV-2 [6]) | syncytia formation (fusion index) [7] | syncytia formation (fusion index) [8] | activity on HCov-OC43 (HCoV-OC43)
1 | O=C1CCC[C@@H](C(=O)O)N1 [lactam 3, (S)-6-oxopiperidine-2-carboxylic acid] | 15 nM | about 100 fold | about 20% |  |  |  |  |  |  |  |  |  |  | 
2 | O=C1CSC[C@@H](C(=O)O)N1 [lactam 2, (R)-5-oxothiomorpholine-3-carboxylic acid] | 45 nM | about 100 fold | about 20% | about 50% | complete inhibition | reducing the infectivity | 45 nM | reduction in SARS-Cov2 RNA levels | reduction of virus production | reduction in SARS-Cov2 RNA levels | reduction of virus production | reducing syncytia formation | reducing syncytia formation | active
